Data as given in patent publication US20170051149A1, “AZOARYLS AS REVERSIBLY MODULATABLE TUBULIN INHIBITORS” (ECOLE NORMALE SUPERIEURE DE LYON, priority 2014, published 2017).

Test system: tubulin
Test: turbidimetric tubulin polymerisation assay with irradiation
Format: biochemical
Conditions: for tubulin polymerisation inhibition: 50 and 25 μM
Procedure: Turbidimetric tubulin polymerisation assays were performed as described in the literature^[29], following the increase in absorbance at 340 nm, but with the addition of irradiation supplied by the monochromator setup described in Part B. Two wavelengths were chosen for each compound, λE->Z (chosen to effect bulk trans->cis isomerisation, typically 390 nm), and λZ->E (chosen to effect bulk cis->trans isomerisation, typically 505 nm). The raw absorbance A(t) could be more clearly discussed by first correcting for any change in azoaryl absorbance over time by subtracting the absorbance of a control run performed without tubulin, yielding the corrected absorbance A*(t), and then taking its derivative R=dA*(t)/dt. Experiments were performed under six sets of conditions to illustrate the light control of tubulin polymerisation inhibition effected by the compounds of the invention: (a) in the dark (typical result: large R at the start decreasing rapidly over time), or (b) with constant irradiation at λE->Z (typical result: small R throughout the experiment), or (c) with constant irradiation at λZ->E (typical result: moderate R at the start decreasing slowly over time), or (d) with irradiation at λE->Z for an initial period then darkness (typical result: initial period with small R, then R increases after a while), or (e) with irradiation at λE->Z for a given period (typically 30 min) then irradiation at λZ->E (typical result: 30 minutes with small R, then R increases quickly to a moderate value which decreases slowly over time), or (f) with irradiation at λE->Z for a given period (usually 30 min) then a short irradiation at λZ->E (usually 30 seconds) then darkness (typical result: 30 minutes with small R, then R increases quickly to a moderate-to-large value which decreases slowly over time); the last three conditions required correction of A(t) to A*(t) to reveal the changes in absorption which were due only to tubulin polymerisation. It would be costly to determine light-dependent in vitro tubulin polymerisation IC50 values for each compound, eg. under protocols (a) and (b) (and/or (c)). This was not performed here since it was considered that such parameters have little predictive value in their intended complex biological settings, especially in light of the importance of biodistribution, tubulin-binding kinetics and lability (rather than thermodynamic binding strength) for tubulin disruption in biological settings.
Table 3 below illustrates typical results from experiments of type (a) (“DARK”) and (b) (“390 nm”) as described above, with compound (I.1) at concentrations well above the IC50 for the toxic regime, compared to a PBS-only control CTRL (no I.1 present).

SMILES: COc1ccc(N=Nc2cc(OC)c(OC)c(OC)c2)cc1O [I.1, 2-methoxy-5-((3,4,5-trimethoxyphenyl)diazenyl)phenol]
- A(λ = 340 nm) (25 μM, 390 nm, 0.0 min): 0.0000
- A(λ = 340 nm) (25 μM, 390 nm, 0.5 min): −0.0026
- A(λ = 340 nm) (25 μM, 390 nm, 1.0 min): −0.0022
- A(λ = 340 nm) (25 μM, 390 nm, 1.5 min): −0.0022
- A(λ = 340 nm) (25 μM, 390 nm, 2.0 min): −0.0010
- A(λ = 340 nm) (25 μM, 390 nm, 3.0 min): 0.0004
- A(λ = 340 nm) (25 μM, 390 nm, 3.5 min): 0.0029
- A(λ = 340 nm) (25 μM, 390 nm, 4.0 min): 0.0027
- A(λ = 340 nm) (25 μM, 390 nm, 4.5 min): 0.0034
- A(λ = 340 nm) (25 μM, 390 nm, 5.0 min): 0.0100
- A(λ = 340 nm) (25 μM, 390 nm, 5.5 min): 0.0094
- A(λ = 340 nm) (25 μM, 390 nm, 6.0 min): 0.0132
- A(λ = 340 nm) (25 μM, 390 nm, 6.5 min): 0.0174
- A(λ = 340 nm) (25 μM, 390 nm, 7.0 min): 0.0171
- A(λ = 340 nm) (25 μM, 390 nm, 7.5 min): 0.0222
- A(λ = 340 nm) (25 μM, 390 nm, 8.0 min): 0.0241
- A(λ = 340 nm) (25 μM, 390 nm, 8.5 min): 0.0259
- A(λ = 340 nm) (25 μM, 390 nm, 9.0 min): 0.0288
- A(λ = 340 nm) (25 μM, 390 nm, 9.5 min): 0.0313
- A(λ = 340 nm) (25 μM, 390 nm, 10.0 min): 0.0341
- A(λ = 340 nm) (25 μM, 390 nm, 10.5 min): 0.0358
- A(λ = 340 nm) (25 μM, 390 nm, 11.0 min): 0.0402
- A(λ = 340 nm) (25 μM, 390 nm, 11.5 min): 0.0413
- A(λ = 340 nm) (25 μM, 390 nm, 12.0 min): 0.0443
- A(λ = 340 nm) (25 μM, 390 nm, […]): −0.0001
- A(λ = 340 nm) (25 μM, DARK, 0.0 min): 0.0000
- A(λ = 340 nm) (25 μM, DARK, 0.5 min): 0.0001
- A(λ = 340 nm) (25 μM, DARK, 1.0 min): −0.0016
- A(λ = 340 nm) (25 μM, DARK, 1.5 min): 0.0018
- A(λ = 340 nm) (25 μM, DARK, 2.0 min): 0.0119
- A(λ = 340 nm) (25 μM, DARK, 3.0 min): 0.0492
- A(λ = 340 nm) (25 μM, DARK, 3.5 min): 0.0689
- A(λ = 340 nm) (25 μM, DARK, 4.0 min): 0.0851
- A(λ = 340 nm) (25 μM, DARK, 4.5 min): 0.0984
- A(λ = 340 nm) (25 μM, DARK, 5.0 min): 0.1073
- A(λ = 340 nm) (25 μM, DARK, 5.5 min): 0.1133
- A(λ = 340 nm) (25 μM, DARK, 6.0 min): 0.1150
- A(λ = 340 nm) (25 μM, DARK, 6.5 min): 0.1212
- A(λ = 340 nm) (25 μM, DARK, 7.0 min): 0.1249
- A(λ = 340 nm) (25 μM, DARK, 7.5 min): 0.1228
- A(λ = 340 nm) (25 μM, DARK, 8.0 min): 0.1250
- A(λ = 340 nm) (25 μM, DARK, 8.5 min): 0.1259
- A(λ = 340 nm) (25 μM, DARK, 9.0 min): 0.1240
- A(λ = 340 nm) (25 μM, DARK, 9.5 min): 0.1276
- A(λ = 340 nm) (25 μM, DARK, 10.0 min): 0.1276
- A(λ = 340 nm) (25 μM, DARK, 10.5 min): 0.1255
- A(λ = 340 nm) (25 μM, DARK, 11.0 min): 0.1290
- A(λ = 340 nm) (25 μM, DARK, 11.5 min): 0.1299
- A(λ = 340 nm) (25 μM, DARK, 12.0 min): 0.1333
- A(λ = 340 nm) (25 μM, DARK, […]): 0.0274
- A(λ = 340 nm) (50 μM, 390 nm, 0.0 min): 0.0000
- A(λ = 340 nm) (50 μM, 390 nm, 0.5 min): 0.0014
- A(λ = 340 nm) (50 μM, 390 nm, 1.0 min): 0.0020
- A(λ = 340 nm) (50 μM, 390 nm, 1.5 min): 0.0033
- A(λ = 340 nm) (50 μM, 390 nm, 2.0 min): 0.0027
- A(λ = 340 nm) (50 μM, 390 nm, 3.0 min): 0.0066
- A(λ = 340 nm) (50 μM, 390 nm, 3.5 min): 0.0074
- A(λ = 340 nm) (50 μM, 390 nm, 4.0 min): 0.0100
- A(λ = 340 nm) (50 μM, 390 nm, 4.5 min): 0.0084
- A(λ = 340 nm) (50 μM, 390 nm, 5.0 min): 0.0122
- A(λ = 340 nm) (50 μM, 390 nm, 5.5 min): 0.0166
- A(λ = 340 nm) (50 μM, 390 nm, 6.0 min): 0.0163
- A(λ = 340 nm) (50 μM, 390 nm, 6.5 min): 0.0172
- A(λ = 340 nm) (50 μM, 390 nm, 7.0 min): 0.0213
- A(λ = 340 nm) (50 μM, 390 nm, 7.5 min): 0.0209
- A(λ = 340 nm) (50 μM, 390 nm, 8.0 min): 0.0221
- A(λ = 340 nm) (50 μM, 390 nm, 8.5 min): 0.0268
- A(λ = 340 nm) (50 μM, 390 nm, 9.0 min): 0.0268
- A(λ = 340 nm) (50 μM, 390 nm, 9.5 min): 0.0293
- A(λ = 340 nm) (50 μM, 390 nm, 10.0 min): 0.0320
- A(λ = 340 nm) (50 μM, 390 nm, 10.5 min): 0.0318
- A(λ = 340 nm) (50 μM, 390 nm, 11.0 min): 0.0327
- A(λ = 340 nm) (50 μM, 390 nm, 11.5 min): 0.0333
- A(λ = 340 nm) (50 μM, 390 nm, 12.0 min): 0.0359
- A(λ = 340 nm) (50 μM, 390 nm, […]): 0.0052
- A(λ = 340 nm) (50 μM, DARK, 0.0 min): 0.0000
- A(λ = 340 nm) (50 μM, DARK, 0.5 min): 0.0010
- A(λ = 340 nm) (50 μM, DARK, 1.0 min): 0.0014
- A(λ = 340 nm) (50 μM, DARK, 1.5 min): 0.0034
- A(λ = 340 nm) (50 μM, DARK, 2.0 min): 0.0128
- A(λ = 340 nm) (50 μM, DARK, 3.0 min): 0.0552
- A(λ = 340 nm) (50 μM, DARK, 3.5 min): 0.0734
- A(λ = 340 nm) (50 μM, DARK, 4.0 min): 0.0926
- A(λ = 340 nm) (50 μM, DARK, 4.5 min): 0.1046
- A(λ = 340 nm) (50 μM, DARK, 5.0 min): 0.1139
- A(λ = 340 nm) (50 μM, DARK, 5.5 min): 0.1209
- A(λ = 340 nm) (50 μM, DARK, 6.0 min): 0.1269
- A(λ = 340 nm) (50 μM, DARK, 6.5 min): 0.1284
- A(λ = 340 nm) (50 μM, DARK, 7.0 min): 0.1262
- A(λ = 340 nm) (50 μM, DARK, 7.5 min): 0.1379
- A(λ = 340 nm) (50 μM, DARK, 8.0 min): 0.1338
- A(λ = 340 nm) (50 μM, DARK, 8.5 min): 0.1359
- A(λ = 340 nm) (50 μM, DARK, 9.0 min): 0.1367
- A(λ = 340 nm) (50 μM, DARK, 9.5 min): 0.1374
- A(λ = 340 nm) (50 μM, DARK, 10.0 min): 0.1397
- A(λ = 340 nm) (50 μM, DARK, 10.5 min): 0.1370
- A(λ = 340 nm) (50 μM, DARK, 11.0 min): 0.1405
- A(λ = 340 nm) (50 μM, DARK, 11.5 min): 0.1417
- A(λ = 340 nm) (50 μM, DARK, 12.0 min): 0.1402
- A(λ = 340 nm) (50 μM, DARK, […]): 0.0305
- tubulin polymerisation inhibition (390 nm irradiation): very strongly inhibited
- tubulin polymerisation inhibition (in the dark): not inhibited
